# In patent publication US10294202B2, “Pyrrolidinones as herbicides” (FMC Corporation, priority 2013, dated 2019):
# Legend:
# [1] = test system: ducksalad; experiment: Test B flooded paddy test; assay type: in vivo, Heteranthera limosa; conditions: Flood, scale of 0 to 100 where 0 is no effect and 100 is complete control
# In short: (§1)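 Treatment was made at the 2-leaf stage by dosing the standing floodwater, kept 3 cm above soil level for the whole test. Greenhouse exposure lasted 13 to 15 days. Response is a visual percent rating relative to controls, where a dash indicates no test result.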
# [2] = test system: corn; experiment: Test A pre-/postemergence herbicide test; assay type: in vivo, Zea mays
# In short: (§2)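 Seeds sown in loam soil/sand blend received a preemergence directed soil spray of test chemical in non-phytotoxic solvent with surfactant; postemergence plants (2–10 cm, one- to two-leaf stage) were sprayed with the same formulation. After about 10 days in greenhouse, injury was rated visually versus untreated controls, 0 (no effect) to 100 (complete control).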
# [3] = test system: velvetleaf; experiment: Test A pre-/postemergence herbicide test; assay type: in vivo, Abutilon theophrasti
# In short: as §2
# [4] = test system: pigweed; experiment: Test A pre-/postemergence herbicide test; assay type: in vivo, Amaranthus retroflexus
# In short: as §2
# [5] = test system: morningglory; experiment: Test A pre-/postemergence herbicide test; assay type: in vivo, Ipomoea spp.
# In short: as §2
# [6] = test system: barnyardgrass; experiment: Test B flooded paddy test; assay type: in vivo, Echinochloa crus-galli; conditions: Flood, scale of 0 to 100 where 0 is no effect and 100 is complete control
# In short: as §1
# [7] = test system: wheat; experiment: Test A pre-/postemergence herbicide test; assay type: in vivo, Triticum aestivum
# In short: as §2
# [8] = test system: crabgrass, large; experiment: Test A pre-/postemergence herbicide test; assay type: in vivo, Digitaria sanguinalis
# In short: as §2
# [9] = test system: barnyardgrass; experiment: Test A pre-/postemergence herbicide test; assay type: in vivo, Echinochloa crus-galli
# In short: as §2
# [10] = test system: giant foxtail; experiment: Test A pre-/postemergence herbicide test; assay type: in vivo, Setaria faberii
# In short: as §2
# [11] = test system: rice; experiment: Test B flooded paddy test; assay type: in vivo, Oryza sativa; conditions: Flood, scale of 0 to 100 where 0 is no effect and 100 is complete control
# In short: as §1
# [12] = test system: sedge, umbrella; experiment: Test B flooded paddy test; assay type: in vivo, Cyperus difformis; conditions: Flood, scale of 0 to 100 where 0 is no effect and 100 is complete control
# In short: as §1
# [13] = Postemergence, 125 g ai/ha, 0 to 100 scale, 0 no effect, 100 complete control
# [14] = Postemergence, 500 g ai/ha, 0 to 100 scale (0 no effect, 100 complete control)
# [15] = Preemergence, 125 g ai/ha, visual rating on 0 to 100 scale (0 no effect, 100 complete control)
# [16] = preemergence, 500 g ai/ha, 0 to 100 scale
# [17] = preemergence, 500 g ai/ha, 0 to 100 scale (0 no effect, 100 complete control)
# [18] = 125 g ai/ha, visual rating, 0 to 100 scale, 0 no effect, 100 complete control, approximately 10 days, preemergence
# [19] = Postemergence, 1000 g ai/ha, 0 to 100 scale (0 no effect, 100 complete control)
# [20] = Preemergence, 1000 g ai/ha, visual rating on 0 to 100 scale (0 no effect, 100 complete control), approx. 10 days
compound,measurement,setting,value
O=C1NCC(c2ccc3c(c2)OC(F)(F)O3)C1C(=O)Nc1ccccc1F (centres unmarked) [Compound 63],"Plant response rating, Ducksalad",[1]; 250 g ai/ha,60
same,"Plant response rating, Corn",[2]; [13],0
same,"Plant response rating, Corn",[2]; [14],50
same,Corn plant response rating,[2]; [15],0
same,"Plant response rating, Corn",[2]; [16],0
same,"Plant response rating, Velvetleaf",[3]; [13],0
same,"Plant response rating, Velvetleaf",[3]; [14],0
same,Velvetleaf plant response rating,[3]; [15],0
same,"Plant response rating, Velvetleaf",[3]; [16],0
same,"Plant response rating, Pigweed",[4]; [13],0
same,"Plant response rating, Pigweed",[4]; [14],0
same,Pigweed plant response rating,[4]; [15],0
same,"Plant response rating, Pigweed",[4]; [16],0
same,"Plant response rating, Morningglory",[5]; [13],0
same,"Plant response rating, Morningglory",[5]; [14],0
same,Morningglory plant response rating,[5]; [15],0
same,"Plant response rating, Morningglory",[5]; [16],0
same,"Plant response rating, Barnyardgrass",[6]; 250 g ai/ha,20
same,"Plant response rating, Wheat",[7]; [13],0
same,"Plant response rating, Wheat",[7]; [14],30
same,Wheat plant response rating,[7]; [15],0
same,"Plant response rating, Wheat",[7]; [16],0
same,"Plant response rating, Crabgrass, Large",[8]; [13],80
same,"Plant response rating, Crabgrass, Large",[8]; [14],90
same,"Crabgrass, Large plant response rating",[8]; [15],90
same,"Plant response rating, Crabgrass, Large",[8]; [16],90
same,"Plant response rating, Barnyardgrass",[9]; [13],60
same,"Plant response rating, Barnyardgrass",[9]; [14],80
same,Barnyardgrass plant response rating,[9]; [15],50
same,"Plant response rating, Barnyardgrass",[9]; [17],80
same,"Plant response rating, Foxtail, Giant",[10]; [13],70
same,"Plant response rating, Foxtail, Giant",[10]; [14],90
same,"Foxtail, Giant plant response rating",[10]; [15],70
same,"Plant response rating, Foxtail, Giant",[10]; [16],90
same,"Plant response rating, Rice",[11]; 250 g ai/ha,0
same,"Plant response rating, Sedge, Umbrella",[12]; 250 g ai/ha,0
O=C1NCC(c2ccc3ccccc3c2)C1C(=O)Nc1ccccc1C(F)(F)F (racemic) [Compound 117],"Plant response rating, Ducksalad",[1]; 1000 g ai/ha,90
same,"Plant response rating, Corn",[2]; [18],0
same,"Plant response rating, Corn",[2]; [13],0
same,"Plant response rating, Corn",[2]; [14],20
same,"Plant response rating, Corn",[2]; [16],0
same,"Plant response rating, Velvetleaf",[3]; [18],0
same,"Plant response rating, Velvetleaf",[3]; [13],0
same,"Velvetleaf plant response rating (0 to 100 scale, 0 is no effect, 100 is complete control)","[3]; Postemergence, 500 g ai/ha",0
same,"Plant response rating, Velvetleaf",[3]; [16],0
same,"Plant response rating, Pigweed",[4]; [18],0
same,"Plant response rating, Pigweed",[4]; [13],0
same,"Pigweed plant response rating (0 to 100 scale, 0 is no effect, 100 is complete control)","[4]; Postemergence, 500 g ai/ha",0
same,"Plant response rating, Pigweed",[4]; [16],0
same,"Plant response rating, Morningglory",[5]; [18],0
same,"Plant response rating, Morningglory",[5]; [13],0
same,"Morningglory plant response rating (0 to 100 scale, 0 is no effect, 100 is complete control)","[5]; Postemergence, 500 g ai/ha",0
same,"Plant response rating, Morningglory",[5]; [16],0
same,"Plant response rating, Barnyardgrass",[6]; 1000 g ai/ha,40
same,"Plant response rating, Wheat",[7]; [18],0
same,"Plant response rating, Wheat",[7]; [13],0
same,"Wheat plant response rating (0 to 100 scale, 0 is no effect, 100 is complete control)","[7]; Postemergence, 500 g ai/ha",0
same,"Plant response rating, Wheat",[7]; [16],0
same,"Plant response rating, Crabgrass, Large",[8]; [18],60
same,"Plant response rating, Crabgrass, Large",[8]; [13],30
same,"Crabgrass, Large plant response rating (0 to 100 scale, 0 is no effect, 100 is complete control)","[8]; Postemergence, 500 g ai/ha",60
same,"Plant response rating, Crabgrass, Large",[8]; [16],80
same,"Plant response rating, Barnyardgrass",[9]; [18],0
same,"Plant response rating, Barnyardgrass",[9]; [13],0
same,"Plant response rating, Barnyardgrass",[9]; [14],30
same,"Plant response rating, Barnyardgrass",[9]; [17],20
same,"Plant response rating, Foxtail, Giant",[10]; [18],20
same,"Plant response rating, Foxtail, Giant",[10]; [13],20
same,"Foxtail, Giant plant response rating (0 to 100 scale, 0 is no effect, 100 is complete control)","[10]; Postemergence, 500 g ai/ha",50
same,"Plant response rating, Foxtail, Giant",[10]; [16],70
same,"Plant response rating, Rice",[11]; 1000 g ai/ha,0
same,"Plant response rating, Sedge, Umbrella",[12]; 1000 g ai/ha,0
O=C1NCC(c2ccc(F)c(F)c2)C1C(=O)Nc1cccnc1C(F)(F)F (racemic) [Compound 98],"Plant response rating, Ducksalad",[1]; 1000 g ai/ha,90
same,"Plant response rating, Corn",[2]; [19],0
same,"Plant response rating, Corn",[2]; [20],20
same,"Plant response rating, Velvetleaf",[3]; [19],10
same,"Plant response rating, Velvetleaf",[3]; [20],0
same,"Plant response rating, Pigweed",[4]; [19],0
same,"Plant response rating, Pigweed",[4]; [20],0
same,"Plant response rating, Morningglory",[5]; [19],0
same,"Plant response rating, Morningglory",[5]; [20],0
same,"Plant response rating, Barnyardgrass",[6]; 1000 g ai/ha,0
same,"Plant response rating, Wheat",[7]; [19],20
same,"Plant response rating, Wheat",[7]; [20],0
same,"Plant response rating, Crabgrass, Large",[8]; [19],90
same,"Plant response rating, Crabgrass, Large",[8]; [20],90
same,"Plant response rating, Barnyardgrass",[9]; [19],50
same,"Plant response rating, Barnyardgrass",[9]; [20],50
same,"Plant response rating, Foxtail, Giant",[10]; [19],60
same,"Plant response rating, Foxtail, Giant",[10]; [20],90
same,"Plant response rating, Rice",[11]; 1000 g ai/ha,0
same,"Plant response rating, Sedge, Umbrella",[12]; 1000 g ai/ha,0
